Results from PubChem BioAssay (NCI).
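Five compound concentrations were applied to cells in 96-well plates for 48 hours; endpoints were derived by simple linear interpolation of the resulting dose-response curve. TGI is the concentration that stops growth completely.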

How the values were obtained:
Experiment in all cases: NCI-60 cell line screen, 48 h
HCT-116 colon = system: HCT-116 colon
K-562 leukemia = system: K-562 leukemia
MDA-MB-435 = system: MDA-MB-435
HT29 colon = system: HT29 colon
DU-145 prostate = system: DU-145 prostate
U251 CNS = system: U251 CNS
CAKI-1 renal = system: CAKI-1 renal
UACC-62 melanoma = system: UACC-62 melanoma
CCRF-CEM leukemia = system: CCRF-CEM leukemia
HOP-62 NSCLC = system: HOP-62 NSCLC

Row | Structure (SMILES) | TGI (HCT-116 colon) | TGI (K-562 leukemia) | TGI (MDA-MB-435) | TGI (HT29 colon) | TGI (DU-145 prostate) | TGI (U251 CNS) | TGI (CAKI-1 renal) | TGI (UACC-62 melanoma) | TGI (CCRF-CEM leukemia) | TGI (HOP-62 NSCLC)
1 | Cc1cc(Cc2cc(C)c(NC(=O)C(=O)C3CCC4=C(SC5C=CC=CC5N4)C3=O)c(C(C)C)c2)cc(C(C)C)c1NC(=O)C(=O)C1CCC2=C(SC3C=CC=CC3N2)C1=O (stereo not drawn) | > 100 µM | > 100 µM | > 100 µM | > 100 µM | > 100 µM | > 100 µM | > 100 µM | > 100 µM | > 100 µM | > 100 µM
2 | OC(c1ccc(C(F)(F)F)cc1)C(F)(F)c1nc2ccccc2o1 (stereo not drawn) | > 100 µM | > 100 µM | > 100 µM | > 100 µM | > 100 µM | > 100 µM | > 100 µM | > 100 µM | > 100 µM | > 100 µM
3 | O=c1[nH]nc(Cc2c[nH]c3ccccc23)o1 | > 100 µM | > 100 µM | > 100 µM | > 100 µM | > 100 µM | > 100 µM | > 100 µM | > 100 µM | > 100 µM | > 100 µM
4 | CC1=C(O)C(=O)C2C(=O)C1C1Cc3ccccc3C21 (stereo not drawn) | – | > 100 µM | – | > 100 µM | – | > 100 µM | > 100 µM | > 100 µM | > 100 µM | > 100 µM
5 | N#CC(=N)c1ncn(-c2ccc(N)cc2)c1N | > 100 µM | > 100 µM | > 100 µM | > 100 µM | > 100 µM | > 100 µM | > 100 µM | > 100 µM | > 100 µM | > 100 µM
6 | COc1ccc(Cc2nnc(Nc3ccc(Br)cc3)[nH]c2=O)cc1OC | > 100 µM | > 100 µM | 20.7 µM | > 100 µM | > 100 µM | > 100 µM | > 100 µM | > 100 µM | > 100 µM | > 95.8 µM
7 | CC1(C)OC(=O)N(c2ccccc2)C12C=Cc1cccc([N+](=O)[O-])c1O2 (stereo not drawn) | > 100 µM | > 100 µM | > 100 µM | > 100 µM | > 100 µM | > 100 µM | > 100 µM | > 100 µM | > 100 µM | > 100 µM
8 | COc1cc(/C=N/n2c(-c3ccccc3)nn(C(C)=O)c2=O)cc(OC)c1OC | > 100 µM | > 100 µM | 1.96 µM | > 44.3 µM | > 89.1 µM | > 44.6 µM | > 100 µM | 31.4 µM | > 100 µM | > 100 µM
9 | COc1ccc(N2C(=O)C3c4[nH]c5ccc(Br)cc5c4C4CCC(C(C)(C)C)CC4C3C2=O)cc1 (stereo not drawn) | > 100 µM | > 100 µM | > 100 µM | > 100 µM | > 100 µM | > 100 µM | > 100 µM | > 100 µM | > 100 µM | > 100 µM
10 | Cc1c2c(c(O)c3c(O)cccc13)C(=O)C1(O)C(O)=C(C(=O)NCNc3ccc(C(N)=O)cn3)C(=O)C(N(C)C)C1C2 (stereo not drawn) | > 100 µM | 6.26 µM | 27.1 µM | > 100 µM | 20 µM | 18.5 µM | 48.4 µM | 9.59 µM | 8.31 µM | > 100 µM
11 | N#Cc1c(-c2ccc(Cl)cc2)[nH]c(=O)n(C2OC(CO)C(O)C(O)C2O)c1=O (stereo not drawn) | > 100 µM | > 100 µM | > 100 µM | > 100 µM | > 100 µM | > 100 µM | > 100 µM | > 100 µM | > 100 µM | > 100 µM
12 | CN(/N=C/c1cccc2cccnc12)c1ccc(Cl)cc1[N+](=O)[O-] | > 100 µM | > 100 µM | > 100 µM | > 100 µM | > 100 µM | > 100 µM | > 100 µM | > 100 µM | > 100 µM | > 100 µM
13 | COc1ccc(-c2cc(=O)c3cc(OC)ccc3[nH]2)cc1 | > 100 µM | > 100 µM | – | > 100 µM | – | – | – | > 100 µM | > 100 µM | > 100 µM
14 | CN(C)CCn1c(=O)c2ccc(NCCN3CCNCC3)c3c(=O)c4ccccc4n(c1=O)c23 | 12.8 µM | 6.85 µM | 9.01 µM | 18.8 µM | 17.7 µM | 24.8 µM | 10.2 µM | 15.8 µM | 4.4 µM | 22.8 µM
15 | COc1cc(C2c3cc4c(cc3OC(NNS(=O)(=O)c3ccc(C)cc3)C2C)OCO4)cc(OC)c1O (stereo not drawn) | > 100 µM | 45.7 µM | 12.4 µM | 49.6 µM | > 100 µM | 27.8 µM | 32.8 µM | 40.9 µM | > 100 µM | 39.4 µM
16 | O=C1CSC(c2ccccc2[N+](=O)[O-])N1c1ccc(-c2ccc(-n3c(-c4ccccc4)nc4ccccc4c3=O)cc2)cc1 (stereo not drawn) | > 100 µM | > 100 µM | > 100 µM | > 100 µM | > 100 µM | > 100 µM | > 100 µM | > 100 µM | > 100 µM | > 100 µM
17 | CSc1nc(NC2OC(COC(C)=O)C(OC(C)=O)C(OC(C)=O)C2OC(C)=O)c2c(n1)OCC2=O (stereo not drawn) | > 100 µM | > 100 µM | – | > 100 µM | – | > 100 µM | > 100 µM | > 100 µM | > 100 µM | > 100 µM
18 | O=C(c1ccccc1)c1ccc2[nH]c(-c3c(Cl)c(Cl)c(Cl)c(Cl)c3C(=O)N/N=C/c3cccc(Oc4ccccc4)c3)nc2c1 | > 100 µM | > 100 µM | > 100 µM | > 100 µM | > 100 µM | > 100 µM | > 100 µM | – | > 100 µM | > 100 µM
19 | O=[N+]([O-])C(=C(N1CCOCC1)N1CCOCC1)/C(Cl)=C(\Cl)Br | 30.8 µM | 60.2 µM | – | 44.9 µM | > 100 µM | 39.9 µM | – | – | 9.49 µM | > 100 µM
20 | CC(C)N=C(N)NC#N | > 100 µM | > 100 µM | – | > 100 µM | – | – | > 100 µM | > 100 µM | > 100 µM | > 100 µM
21 | COc1ccc(CCCNC(=O)c2cc(OC)c(OC)cc2CCO)cc1OC | > 100 µM | > 100 µM | > 100 µM | > 100 µM | > 100 µM | > 100 µM | > 100 µM | > 100 µM | – | > 100 µM
